# According to patent publication US20100210611A1, “COMBINATION THERAPY” (priority 2007, published 2010):
# Several values for one entry are separate records, joined by “and”; a condition that tells them apart may be missing. Equal entries are not always repeated.
# What was measured:
# [1] = system: Ascaris challenge in allergic sheep; test: Allergic sheep model: EAR, LAR and AHR response to Ascaris challenge; format: in vivo; settings: for AHR (%) inhibition / EAR (%) Inhibition / LAR (%) inhibition: single dose 30 minutes before Ascaris challenge
# Method: The allergic sheep model was used to test the effect of inhaled montelukast acid against early asthmatic response (EAR), late asthmatic response (LAR) and airway hyper-reactivity (AHR) response to Ascaris challenge in allergic sheep. The compound was administered directly into the lungs using the Spinhaler DPI that was attached directly to an indwelling endotracheal tube. Capsules used in the Spinhaler contained a micronized blend of 20% drug/80% lactose, corresponding to approx. 5 mg of the active compound. The compound was administered as a single dose 30 minutes before Ascaris challenge. To optimize delivery, each Spinhaler actuation was synchronized with a series of aspiratory cycles.
# Doses for inhalation were selected based on total IV doses administered in sheep studies that had been conducted. Administration of 3 or 9 capsules should achieve a total inhaled dose of approximately 0.1 mg/kg and 0.3 mg/kg, respectively. The purported dose delivered is an estimate based on an experimentally determined fine particle fraction efficiency of 30%. Plasma drug levels were measured at various time points throughout the study.
# Initial experiments (n=2) were performed with 0.1 mg/kg of montelukast acid. […] The second set of experiments (n=4) was performed with 0.3 mg/kg of montelukast acid.
# [2] = Blend uniformity (individual capsule assay); format: physicochemical; settings: HPLC, Mean ± RSD
# Method: To assess blend uniformity, capsules from each blend were opened and rinsed with methanol. The solution was sonicated for 5 minutes at room temperature, centrifuged at 3000 rpm for 15 minutes then assayed using a UV-VIS spectrophotometer at a wavelength of 346 nm. […]
# To assess blend uniformity, the blend was sampled randomly from the glass vial. The drugs were extracted analogous to that described in section Blend Uniformity for Example 1. However, the content of montelukast acid and mometasone furoate were analyzed by High Performance Liquid Chromatography (HPLC) employing a phenyl column with a controlled temperature of 50° C., a mixture of water containing 0.2% trifluoroacetic acid (TFA) and acetonitrile containing 0.2% TFA (53:47) as the mobile phase at a flow rate 2 ml/min and UV-detection at 248 nm.
# The blend uniformity was assessed in a manner analogous to that described in the Blend Uniformity section in Example 4, except the content of montelukast acid and ciclesonide were analyzed by High Performance Liquid Chromatography (HPLC) employing a phenyl column with a controlled temperature of 50° C., a mixture of water containing 0.2% trifluoroacetic acid (TFA) and acetonitrile containing 0.2% TFA (40:60) at a flow rate 2 ml/min and UV-detection at 248 nm.
# [3] = Aerodynamic particle size distribution, Andersen cascade impaction (ACI); format: physicochemical; settings: Spinhaler; for MMAD: cutoff diameter based on airflow rate of 28.3 L/min; for amount in ACI: including mouthpiece adapter
# From the text: The Andersen cascade impaction (ACI) (Apparatus 3) was the device used to determine the aerodynamic size distribution. The impaction provided in vitro measurements of the fraction of the aerosol that has the potential to reach the alveolar region of the lung. This value is represented by the portion of particles detected below plate 2. The impaction was operated at the flow rate and test time according to the method described in USP <601>. Because the Spinhaler® is a low resistance device, it is difficult to achieve a pressure drop of 4 kPa, an adjustment of the air flow rate at the intake of the flow control was performed, as discussed above. Each impaction plate was coated with silicone grease (316 Dow Corning) to prevent particles from bouncing off the plates and returning to the air stream. All stages were used since the test flow rate was less than 60 L/min. All pieces of the impaction including the inhaler and capsule were rinsed with solvent, diluted to suitable volumes, sonicated, centrifuged and assayed using the UV-VIS spectrophotometer. The respirable portion was quantified by the in vitro fine particle fraction and fine particle mass. Dose uniformity and cascade impaction tests were carried out at controlled temperature (20-25° C.) and humidity (50% RH). […]
# Aerodynamic size distribution was performed according to USP Chapter <601> by using ACI Apparatus 3 with the Spinhaler® device analogous to that described in section Aerodynamic Particle Size Distribution for Example 1. However, the HPLC was used to analyze the content of the drugs as described in the Blend Uniformity in this example.
# Aerodynamic size distribution was performed according to USP Chapter <601> by using ACI Apparatus 3 with the Spinhaler® device in a manner analogous to that described in section Aerodynamic Particle Size Distribution in Example 4. The content of the drugs were analyzed as described in the Blend Uniformity in this example.
# [4] = Moisture and light sensitivity; format: physicochemical
# [5] = Approx. 0.1 mg/kg (3 capsules) inhaled via Spinhaler, n=2
# [6] = Approx. 0.3 mg/kg (9 capsules) inhaled via Spinhaler, n=4
# [7] = Example 4 blend, blend with mometasone furoate
# [8] = Example 5 blend, blend with ciclesonide
smiles,measurement,setting,value
"CC(C)(O)c1ccccc1CC[C@@H](SCC1(CC(=O)O)CC1)c1cccc(/C=C/c2ccc3ccc(Cl)cc3n2)c1 [Montelukast Acid, montelukast acid]","inhibition of EAR, LAR and AHR (in words)","[1]; 0.1 mg/kg inhaled, n=2",partial inhibition of the LAR and AHR but not the EAR
same,"inhibition of EAR, LAR and AHR (in words)","[1]; 0.3 mg/kg inhaled, n=4",Marked inhibition of all three phases of the response
same,AHR (%) inhibition,[1]; [5],60%
same,EAR (%) Inhibition,[1]; [5],7%
same,LAR (%) inhibition,[1]; [5],42%
same,AHR (%) inhibition,[1]; [6],76%
same,EAR (%) Inhibition,[1]; [6],47%
same,LAR (%) inhibition,[1]; [6],79%
same,Amount Recovered (μg/Capsule),"[2]; Example 4 blend (montelukast acid 4%, mometasone furoate 1.6%)",940.4 µg and 907.0 µg and 953.9 µg
same,Amount Recovered (μg/Capsule),"[2]; Example 4 blend (montelukast acid 4%, mometasone furoate 1.6%), mean",933.8 ± 2.6 µg
same,"Amount Recovered, %",[2]; Example 4 blend,91.4% and 93.0% and 93.9%
same,"Amount Recovered, %","[2]; Example 4 blend, mean",92.8 ± 1.4%
same,Amount Recovered (μg/Capsule),"[2]; Example 5 blend (montelukast acid 4%, ciclesonide 0.64%)",943.3 µg and 928.8 µg and 997.5 µg
same,Amount Recovered (μg/Capsule),"[2]; Example 5 blend (montelukast acid 4%, ciclesonide 0.64%), mean of three capsules",956.6 ± 3.4 µg
same,"Amount Recovered, %",[2]; Example 5 blend,94.3% and 92.9% and 99.8%
same,"Amount Recovered, %","[2]; Example 5 blend, mean of three capsules",95.7 ± 3.4%
same,FPF,[3]; Example 4 blend,29%
same,FPD,[3]; [7],126.1 µg and 145.7 µg and 118.7 µg
same,FPF,[3]; [7],28.6% and 28.4% and 29.9%
same,GSD,[3]; [7],2.1 and 1.4
same,Total recovered,[3]; [7],953 µg and 962 µg and 921 µg
same,amount in inhaler,[3]; [7],512 µg and 450 µg and 524 µg
same,MMAD,[3]; Example 4 blend,4.5 μm
same,MMAD,[3]; [7],4.6 μm and 4.4 μm
same,MMAD,"[3]; Example 4 blend, mean",4.5 μm
same,amount in ACI,[3]; [7],441 µg and 513 µg and 397 µg
same,amount in ACI,"[3]; Example 4 blend, mean",450 µg
same,FPD,"[3]; Example 4 blend, mean",130.2 µg
same,FPF,"[3]; Example 4 blend, mean",29.0%
same,GSD,"[3]; Example 4 blend, mean",1.6
same,Total recovered,"[3]; Example 4 blend, mean",945 µg
same,amount in inhaler,"[3]; Example 4 blend, mean",495 µg
same,FPF,[3]; Example 5 blend,38%
same,FPD,[3]; [8],161.8 µg and 190.6 µg and 179.0 µg
same,FPF,[3]; [8],35.2% and 40.7%
same,GSD,[3]; [8],1.5 and 2.0
same,Total recovered,[3]; [8],990 µg and 882 µg and 904 µg
same,amount in inhaler,[3]; [8],530 µg and 413 µg and 431 µg
same,MMAD,[3]; Example 5 blend,3.9 μm
same,MMAD,[3]; [8],3.9 μm and 4.0 μm and 3.8 μm
same,amount in ACI,[3]; [8],459 µg and 468 µg and 472 µg
same,amount in ACI,"[3]; Example 5 blend, mean",467 µg
same,FPD,"[3]; Example 5 blend, mean",177.1 µg
same,FPF,"[3]; Example 5 blend, mean",37.9%
same,GSD,"[3]; Example 5 blend, mean",1.7
same,Total recovered,"[3]; Example 5 blend, mean",925 µg
same,amount in inhaler,"[3]; Example 5 blend, mean",458 µg
same,moisture and light sensitivity,[4],moisture sensitive and photosensitive
